Measurements as given in ChEMBL document CHEMBL1152596, “Inhibition of serotonin and norepinephrine reuptake and inhibition of phosphodiesterase by multi-target inhibitors as potential agents for depression” (Bioorg Med Chem, 2009).

Experiments:
[1] = target: T1, Sodium-dependent serotonin transporter (Homo sapiens, UniProt P31645)
Description: Inhibition of [3H]5HT reuptake at human SERT expressed in HEK293 cells

[2] = target: T2, Sodium-dependent noradrenaline transporter (Homo sapiens, UniProt P23975); test: biochemical
Description: Displacement of [125I]RTI-55 from human recombinant NET expressed in HEK293 cells by scintillation counting

[3] = target: T2, Sodium-dependent noradrenaline transporter
Description: Inhibition of [3H]NE reuptake at human NET expressed in HEK cells

[4] = target: T3, Sodium-dependent dopamine transporter (Homo sapiens, UniProt Q01959); test: biochemical
T3 sequence (Q01959 whole entry): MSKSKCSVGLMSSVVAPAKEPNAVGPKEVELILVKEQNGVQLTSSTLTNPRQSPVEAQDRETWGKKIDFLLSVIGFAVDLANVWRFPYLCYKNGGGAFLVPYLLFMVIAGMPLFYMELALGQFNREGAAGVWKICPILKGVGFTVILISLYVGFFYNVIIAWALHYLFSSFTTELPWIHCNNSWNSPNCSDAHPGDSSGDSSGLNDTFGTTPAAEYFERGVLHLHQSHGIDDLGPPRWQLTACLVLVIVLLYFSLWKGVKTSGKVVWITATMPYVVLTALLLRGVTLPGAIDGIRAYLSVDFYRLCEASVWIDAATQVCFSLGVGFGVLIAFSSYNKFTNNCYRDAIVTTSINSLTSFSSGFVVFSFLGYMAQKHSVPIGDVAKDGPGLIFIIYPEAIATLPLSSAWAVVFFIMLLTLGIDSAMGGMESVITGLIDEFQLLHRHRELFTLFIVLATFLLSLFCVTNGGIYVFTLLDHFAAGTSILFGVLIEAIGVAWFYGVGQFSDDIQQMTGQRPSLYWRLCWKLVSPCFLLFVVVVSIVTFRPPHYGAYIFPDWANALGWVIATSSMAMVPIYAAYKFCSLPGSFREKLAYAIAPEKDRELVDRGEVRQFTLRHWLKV
Description: Displacement of [125I]RTI-55 from human recombinant DAT expressed in HEK293 cells

[5] = target: T3, Sodium-dependent dopamine transporter
Description: Inhibition of [3H]DA reuptake at human DAT expressed in HEK293 cells

[6] = target: T1, Sodium-dependent serotonin transporter; test: biochemical
Description: Displacement of [125I]RTI-55 from human recombinant SERT expressed in HEK293 cells

[7] = target: 3',5'-cyclic-AMP phosphodiesterase 4D (Homo sapiens, UniProt Q08499)
Chain of 3',5'-cyclic-AMP phosphodiesterase 4D (Q08499 whole entry): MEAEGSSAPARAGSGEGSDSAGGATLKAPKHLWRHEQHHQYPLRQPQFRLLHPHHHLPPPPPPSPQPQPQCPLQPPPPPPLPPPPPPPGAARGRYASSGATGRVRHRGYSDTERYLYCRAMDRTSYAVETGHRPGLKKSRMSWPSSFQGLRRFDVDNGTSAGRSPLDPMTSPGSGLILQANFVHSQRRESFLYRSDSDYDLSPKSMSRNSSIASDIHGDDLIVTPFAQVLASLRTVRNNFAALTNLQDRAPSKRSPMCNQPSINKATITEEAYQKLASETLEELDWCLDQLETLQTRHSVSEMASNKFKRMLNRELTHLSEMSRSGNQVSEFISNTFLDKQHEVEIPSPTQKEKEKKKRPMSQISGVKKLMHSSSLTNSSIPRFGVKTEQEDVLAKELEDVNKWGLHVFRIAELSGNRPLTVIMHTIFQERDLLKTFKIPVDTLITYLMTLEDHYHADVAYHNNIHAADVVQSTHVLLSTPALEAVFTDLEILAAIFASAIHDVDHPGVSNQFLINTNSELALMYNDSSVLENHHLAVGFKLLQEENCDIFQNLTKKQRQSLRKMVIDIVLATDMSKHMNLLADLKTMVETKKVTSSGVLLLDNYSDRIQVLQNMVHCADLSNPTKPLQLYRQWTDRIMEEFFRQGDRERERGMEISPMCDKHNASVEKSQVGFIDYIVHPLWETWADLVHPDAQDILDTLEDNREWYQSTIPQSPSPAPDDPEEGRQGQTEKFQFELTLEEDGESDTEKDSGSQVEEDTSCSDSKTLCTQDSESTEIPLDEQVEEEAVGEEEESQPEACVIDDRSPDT
Description: Inhibition of PDE4D2 assessed as cAMP hydrolysis

T1 sequence (P31645 whole entry): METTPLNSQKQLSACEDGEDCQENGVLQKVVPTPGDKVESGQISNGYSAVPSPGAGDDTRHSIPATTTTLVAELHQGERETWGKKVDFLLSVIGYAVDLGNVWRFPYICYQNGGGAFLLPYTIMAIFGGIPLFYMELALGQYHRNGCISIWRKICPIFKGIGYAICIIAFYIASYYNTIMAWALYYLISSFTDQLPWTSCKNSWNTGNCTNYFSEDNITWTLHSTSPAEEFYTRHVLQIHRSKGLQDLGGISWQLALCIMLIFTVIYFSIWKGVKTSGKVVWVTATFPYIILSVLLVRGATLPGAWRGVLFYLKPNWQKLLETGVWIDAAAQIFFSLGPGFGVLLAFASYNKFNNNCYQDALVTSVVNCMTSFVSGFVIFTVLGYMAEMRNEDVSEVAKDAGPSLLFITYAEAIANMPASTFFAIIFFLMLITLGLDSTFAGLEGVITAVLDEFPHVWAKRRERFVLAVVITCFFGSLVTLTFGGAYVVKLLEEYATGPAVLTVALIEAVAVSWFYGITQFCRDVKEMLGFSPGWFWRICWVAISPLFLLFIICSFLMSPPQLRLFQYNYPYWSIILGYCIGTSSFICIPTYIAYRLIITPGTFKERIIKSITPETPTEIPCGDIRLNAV
T2 sequence (P23975 whole entry): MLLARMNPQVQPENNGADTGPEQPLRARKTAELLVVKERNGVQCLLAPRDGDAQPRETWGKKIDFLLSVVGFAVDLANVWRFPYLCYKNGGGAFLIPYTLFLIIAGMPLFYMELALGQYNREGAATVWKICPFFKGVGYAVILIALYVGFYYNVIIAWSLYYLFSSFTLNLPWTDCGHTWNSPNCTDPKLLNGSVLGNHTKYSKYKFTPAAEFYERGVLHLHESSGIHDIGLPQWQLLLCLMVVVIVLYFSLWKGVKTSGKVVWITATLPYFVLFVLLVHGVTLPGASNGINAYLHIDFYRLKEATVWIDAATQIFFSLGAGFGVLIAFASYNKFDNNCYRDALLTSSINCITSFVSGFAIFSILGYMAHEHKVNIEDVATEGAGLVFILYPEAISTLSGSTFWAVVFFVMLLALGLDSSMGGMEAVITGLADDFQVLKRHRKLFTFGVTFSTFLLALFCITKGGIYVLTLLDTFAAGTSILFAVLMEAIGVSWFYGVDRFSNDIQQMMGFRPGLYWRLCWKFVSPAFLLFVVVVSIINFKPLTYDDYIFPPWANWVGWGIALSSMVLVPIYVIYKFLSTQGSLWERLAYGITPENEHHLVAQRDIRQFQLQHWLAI

Compound | IC50 [1] [nM] | Ki [2] [nM] | IC50 [3] [nM] | Ki [4] [nM] | IC50 [5] [nM] | Ki [6] [nM] | IC50 [7] [nM]
COc1ccc(C2=NNC(=O)[C@@H]3CC=CC[C@H]23)cc1OC (relative stereo) | > 100000 | > 100000 | > 100000 | > 100000 | > 100000 | > 100000 | 213
NCC[C@@H](Oc1cccc2ccccc12)c1cccs1 [R-NORDULOXETINE] | 6.8 | 953 | 188 | 3550 | > 10000 | 8.3 | > 100000
COc1ccc(C2=NN(CCCCCNCC[C@H](Oc3cccc4ccccc34)c3cccs3)C(=O)[C@@H]3CC=CC[C@H]23)cc1OC | 404 | > 100000 | 2190 | 4600 | 6630 | 726 | 23
COc1ccc(C2=NN(CCCCCNCC[C@@H](Oc3cccc4ccccc34)c3cccs3)C(=O)[C@@H]3CC=CC[C@H]23)cc1OC | 442 | 3240 | 2100 | 857 | 1790 | 127 | 45
NCC[C@H](Oc1cccc2ccccc12)c1cccs1 [(S)-NORDULOXETINE] | 25.6 | 2400 | 445 | > 10000 | > 10000 | 18 | > 100000
